According to PubChem BioAssay (NCI):
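48-hour exposure; five concentrations; linearly interpolated endpoints. Abbreviation: GI50, concentration required for 50% inhibition of growth. At the TGI there is no net growth.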

Experiments:
Test in all cases: inhibition of tumour cell growth, NCI panel, 48 h
786-0 renal = system: 786-0 renal
A498 renal = system: A498 renal
A549 NSCLC = system: A549 NSCLC
ACHN renal = system: ACHN renal
BT-549 breast = system: BT-549 breast
CAKI-1 renal = system: CAKI-1 renal
CCRF-CEM leukemia = system: CCRF-CEM leukemia
COLO 205 colon = system: COLO 205 colon
DU-145 prostate = system: DU-145 prostate
HCC-2998 colon = system: HCC-2998 colon
HCT-116 colon = system: HCT-116 colon
HCT-15 colon = system: HCT-15 colon
HL-60(TB) leukemia = system: HL-60(TB) leukemia
HOP-62 NSCLC = system: HOP-62 NSCLC
HOP-92 NSCLC = system: HOP-92 NSCLC
HS 578T breast = system: HS 578T breast
HT29 colon = system: HT29 colon
IGROV1 ovarian = system: IGROV1 ovarian
K-562 leukemia = system: K-562 leukemia
KM12 colon = system: KM12 colon
LOX IMVI melanoma = system: LOX IMVI melanoma
MALME-3M melanoma = system: MALME-3M melanoma
MCF7 breast = system: MCF7 breast
MDA-MB-231 breast = system: MDA-MB-231 breast
MDA-MB-435 = system: MDA-MB-435
MOLT-4 leukemia = system: MOLT-4 leukemia
NCI-H226 lung = system: NCI-H226 lung
NCI-H23 lung = system: NCI-H23 lung
NCI-H460 lung = system: NCI-H460 lung
NCI-H522 lung = system: NCI-H522 lung
NCI/ADR-RES ovarian = system: NCI/ADR-RES ovarian
OVCAR-3 ovarian = system: OVCAR-3 ovarian
OVCAR-4 ovarian = system: OVCAR-4 ovarian
OVCAR-5 ovarian = system: OVCAR-5 ovarian
OVCAR-8 ovarian = system: OVCAR-8 ovarian
PC-3 prostate = system: PC-3 prostate
RPMI-8226 leukemia = system: RPMI-8226 leukemia
RXF 393 renal = system: RXF 393 renal
SF-268 CNS = system: SF-268 CNS
SF-295 CNS = system: SF-295 CNS
SF-539 CNS = system: SF-539 CNS
SK-MEL-2 melanoma = system: SK-MEL-2 melanoma
SK-MEL-28 melanoma = system: SK-MEL-28 melanoma
SK-MEL-5 melanoma = system: SK-MEL-5 melanoma
SK-OV-3 ovarian = system: SK-OV-3 ovarian
SN12C renal = system: SN12C renal
SNB-19 CNS = system: SNB-19 CNS
SNB-75 CNS = system: SNB-75 CNS
SR leukemia = system: SR leukemia
SW-620 colon = system: SW-620 colon
T-47D breast = system: T-47D breast
TK-10 renal = system: TK-10 renal
U251 CNS = system: U251 CNS
UACC-257 melanoma = system: UACC-257 melanoma
UACC-62 melanoma = system: UACC-62 melanoma
UO-31 renal = system: UO-31 renal

N#Cc1ccc(-c2c(-c3ncn[nH]3)sc(N3CCOCC3)c2C#N)c(F)c1
GI50 (786-0 renal): 457 nM | TGI (786-0 renal): 12100 nM | GI50 (A498 renal): 22.5 nM | TGI (A498 renal): 206 nM | GI50 (A549 NSCLC): 666 nM | TGI (A549 NSCLC): 12700 nM | GI50 (ACHN renal): 398 nM | GI50 (BT-549 breast): 3840 nM | TGI (BT-549 breast): 39200 nM | GI50 (CAKI-1 renal): 432 nM | TGI (CAKI-1 renal): 15600 nM | GI50 (CCRF-CEM leukemia): 3880 nM | TGI (CCRF-CEM leukemia): > 100000 nM | GI50 (COLO 205 colon): 687 nM | TGI (COLO 205 colon): 15600 nM | GI50 (DU-145 prostate): 1660 nM | TGI (DU-145 prostate): > 100000 nM | GI50 (HCC-2998 colon): 1080 nM | TGI (HCC-2998 colon): 17200 nM | GI50 (HCT-116 colon): 553 nM | TGI (HCT-116 colon): 37600 nM | GI50 (HCT-15 colon): 596 nM | TGI (HCT-15 colon): 18500 nM | GI50 (HL-60(TB) leukemia): 781 nM | TGI (HL-60(TB) leukemia): > 100000 nM | GI50 (HOP-62 NSCLC): 1050 nM | TGI (HOP-62 NSCLC): 21900 nM | GI50 (HOP-92 NSCLC): 66.3 nM | TGI (HOP-92 NSCLC): 973 nM | GI50 (HS 578T breast): 381 nM | TGI (HS 578T breast): 4850 nM | GI50 (HT29 colon): 363 nM | TGI (HT29 colon): 18300 nM | GI50 (IGROV1 ovarian): 181 nM | TGI (IGROV1 ovarian): 948 nM | GI50 (K-562 leukemia): 5520 nM | TGI (K-562 leukemia): > 100000 nM | GI50 (KM12 colon): 2250 nM | TGI (KM12 colon): 15600 nM | GI50 (LOX IMVI melanoma): 546 nM | TGI (LOX IMVI melanoma): 13100 nM | GI50 (MALME-3M melanoma): 275 nM | TGI (MALME-3M melanoma): 6000 nM | GI50 (MCF7 breast): 135 nM | TGI (MCF7 breast): 17700 nM | GI50 (MDA-MB-231 breast): 3280 nM | TGI (MDA-MB-231 breast): 25700 nM | GI50 (MDA-MB-435): 995 nM | TGI (MDA-MB-435): 17000 nM | GI50 (MOLT-4 leukemia): 484 nM | TGI (MOLT-4 leukemia): 27600 nM | GI50 (NCI-H226 lung): 1830 nM | TGI (NCI-H226 lung): 86300 nM | GI50 (NCI-H23 lung): 3320 nM | TGI (NCI-H23 lung): > 100000 nM | GI50 (NCI-H460 lung): 419 nM | TGI (NCI-H460 lung): 23600 nM | GI50 (NCI-H522 lung): 1170 nM | TGI (NCI-H522 lung): 15000 nM | GI50 (NCI/ADR-RES ovarian): 3190 nM | TGI (NCI/ADR-RES ovarian): > 100000 nM | GI50 (OVCAR-3 ovarian): 502 nM | TGI (OVCAR-3 ovarian): 7890 nM | GI50 (OVCAR-4 ovarian): 2820 nM | TGI (OVCAR-4 ovarian): 36600 nM | GI50 (OVCAR-5 ovarian): 455 nM | TGI (OVCAR-5 ovarian): 10500 nM | GI50 (OVCAR-8 ovarian): 1850 nM | TGI (OVCAR-8 ovarian): > 100000 nM | GI50 (PC-3 prostate): 345 nM | TGI (PC-3 prostate): 20300 nM | GI50 (RPMI-8226 leukemia): 4500 nM | TGI (RPMI-8226 leukemia): 48600 nM | GI50 (RXF 393 renal): 246 nM | TGI (RXF 393 renal): 1680 nM | GI50 (SF-268 CNS): 507 nM | TGI (SF-268 CNS): 59100 nM | GI50 (SF-295 CNS): 426 nM | TGI (SF-295 CNS): 11400 nM | GI50 (SF-539 CNS): 571 nM | TGI (SF-539 CNS): 4530 nM | GI50 (SK-MEL-2 melanoma): 1920 nM | TGI (SK-MEL-2 melanoma): 10700 nM | GI50 (SK-MEL-28 melanoma): 458 nM | TGI (SK-MEL-28 melanoma): 5330 nM | GI50 (SK-MEL-5 melanoma): 2290 nM | TGI (SK-MEL-5 melanoma): 13700 nM | GI50 (SK-OV-3 ovarian): 197 nM | TGI (SK-OV-3 ovarian): 5690 nM | GI50 (SN12C renal): 835 nM | TGI (SN12C renal): > 100000 nM | GI50 (SNB-19 CNS): 1960 nM | TGI (SNB-19 CNS): 38900 nM | GI50 (SNB-75 CNS): 73.6 nM | TGI (SNB-75 CNS): 771 nM | GI50 (SR leukemia): 1880 nM | TGI (SR leukemia): 19800 nM | GI50 (SW-620 colon): 2940 nM | TGI (SW-620 colon): 29900 nM | GI50 (T-47D breast): 39.1 nM | TGI (T-47D breast): 522 nM | GI50 (TK-10 renal): 316 nM | TGI (TK-10 renal): 7110 nM | GI50 (U251 CNS): 1030 nM | TGI (U251 CNS): 21700 nM | GI50 (UACC-257 melanoma): 418 nM | TGI (UACC-257 melanoma): 8850 nM | GI50 (UACC-62 melanoma): 384 nM | TGI (UACC-62 melanoma): 2640 nM | GI50 (UO-31 renal): 191 nM | TGI (UO-31 renal): 11200 nM
